Measurements published in US6355799B1, “Substituted benzene compounds, process for their preparation, and herbicidal and defoliant compositions containing them” (ISK Americas Incorporated, priority 1997, dated 2002).

What was measured:
Type in all cases: in vivo
[1] = tested on: redroot pigweed (Amaranthus retroflexus, AMARE); experiment: Pre-emerge test, greenhouse herbicide activity screening; settings: for Pre-emerge Herbicidal Activity AMARE: phytotoxicity rating 0-100, 14 days after application; for phytotoxicity rating AMARE: pre-emerge, 14 days after application, scale 0-100
Outline: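 Sandy loam pots; pre-emerge: sown 1 d pre-spray, surface-watered after, then bottom-watered. Post-emerge: sown 8–21 d before, 2–3 leaf stage, + 0.25% v/v NIS, bottom-watered. Acetone, 187 l/ha track spray, 15–1000 g ai/ha. 0–100 injury score, day 14.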

[2] = tested on: lambsquarters (Chenopodium album, CHEAL); experiment: as above; settings: for Pre-emerge Herbicidal Activity CHEAL: phytotoxicity rating 0-100, 14 days after application; for phytotoxicity rating CHEAL: pre-emerge, 14 days after application, scale 0-100
Outline: (§1)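 Herbicidal damage is scored 0 (none) to 100 (complete plant death) two weeks after a simulated field spray. Rates span 15–1000 g ai/ha, delivered in acetone at 187 l/ha. For post-emergence treatments, plants have 2–3 leaves and the spray carries 0.25% v/v non-ionic surfactant.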

[3] = tested on: ivyleaf morningglory (Ipomoea hederacea, IPOHE); experiment: as above; settings: for Pre-emerge Herbicidal Activity IPOHE: phytotoxicity rating 0-100, 14 days after application; for phytotoxicity rating IPOHE: pre-emerge, 14 days after application, scale 0-100
Outline: as §1

[4] = tested on: velvetleaf (Abutilon theophrasti, ABUTH); experiment: as above; settings: for Pre-emerge Herbicidal Activity ABUTH: phytotoxicity rating 0-100, 14 days after application; for phytotoxicity rating ABUTH: pre-emerge, 14 days after application, scale 0-100
Outline: as §1

[5] = tested on: johnsongrass (Sorghum halepense, SORHA); experiment: as above; settings: for Pre-emerge Herbicidal Activity SORHA: phytotoxicity rating 0-100, 14 days after application; for phytotoxicity rating SORHA: pre-emerge, 14 days after application, scale 0-100
Outline: as §1

[6] = tested on: sicklepod (Cassia obtusifolia, CASOB); experiment: as above; settings: for Pre-emerge Herbicidal Activity CASOB: phytotoxicity rating 0-100, 14 days after application; for phytotoxicity rating CASOB: pre-emerge, 14 days after application, scale 0-100
Outline: as §1

[7] = tested on: barnyardgrass (Echinochloa crus-galli, ECHCG); experiment: as above; settings: for Pre-emerge Herbicidal Activity ECHCG: phytotoxicity rating 0-100, 14 days after application; for phytotoxicity rating ECHCG: pre-emerge, 14 days after application, scale 0-100
Outline: as §1

[8] = tested on: green foxtail (Setaria viridis, SETVI); experiment: as above; settings: for Pre-emerge Herbicidal Activity SETVI: phytotoxicity rating 0-100, 14 days after application; for phytotoxicity rating SETVI: pre-emerge, 14 days after application, scale 0-100
Outline: as §1

[9] = tested on: large crabgrass (Digitaria sanguinalis, DIGSA); experiment: as above; settings: for Pre-emerge Herbicidal Activity DIGSA: phytotoxicity rating 0-100, 14 days after application; for phytotoxicity rating DIGSA: pre-emerge, 14 days after application, scale 0-100
Outline: as §1

[10] = tested on: field corn (Zea mays L., var. Dekalb 535, CORN); experiment: Post-emerge test, crop safety; settings: post-emerge, 14 days after application, rating scale 0-100
Outline: as §1

[11] = tested on: upland rice (Oryza sp., var. Tebonnet, RICE); experiment: Post-emerge test, crop safety; settings: post-emerge, 14 days after application, rating scale 0-100
Outline: as §1

[12] = tested on: lambsquarters (Chenopodium album, CHEAL); experiment: Post-emerge test, greenhouse herbicide activity screening; settings: post-emerge, 14 days after application, rating scale 0-100
Outline: (§2)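 Compounds in acetone were track-sprayed at 187 l/ha, 15–1000 g ai/ha, onto sandy loam pots. Pre-emerge seeds were sown one day before spraying, with surface watering afterwards. Post-emerge plants were at the 2–3 leaf stage and sprayed with 0.25% v/v non-ionic surfactant. Injury was rated 0–100 at 14 days.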

[13] = tested on: redroot pigweed (Amaranthus retroflexus, AMARE); experiment: as above; settings: post-emerge, 14 days after application, rating scale 0-100
Outline: as §2

[14] = tested on: ivyleaf morningglory (Ipomoea hederacea, IPOHE); experiment: as above; settings: post-emerge, 14 days after application, rating scale 0-100
Outline: as §2

[15] = tested on: velvetleaf (Abutilon theophrasti, ABUTH); experiment: as above; settings: post-emerge, 14 days after application, rating scale 0-100
Outline: as §2

[16] = tested on: johnsongrass (Sorghum halepense, SORHA); experiment: as above; settings: post-emerge, 14 days after application, rating scale 0-100
Outline: as §2

[17] = tested on: sicklepod (Cassia obtusifolia, CASOB); experiment: as above; settings: post-emerge, 14 days after application, rating scale 0-100
Outline: as §2

[18] = tested on: barnyardgrass (Echinochloa crus-galli, ECHCG); experiment: as above; settings: post-emerge, 14 days after application, rating scale 0-100
Outline: as §2

[19] = tested on: green foxtail (Setaria viridis, SETVI); experiment: as above; settings: post-emerge, 14 days after application, rating scale 0-100
Outline: as §2

[20] = tested on: large crabgrass (Digitaria sanguinalis, DIGSA); experiment: as above; settings: post-emerge, 14 days after application, rating scale 0-100
Outline: as §2

[21] = tested on: field corn (Zea mays L., var. Dekalb 535, CORN); experiment: Pre-emerge test, crop safety; settings: for Pre-emerge Herbicidal Activity CORN: crop damage rating 0-100, 14 days after application; for phytotoxicity rating CORN (crop damage): pre-emerge, 14 days after application, scale 0-100
Outline: (§3)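 Rating: 0–100 visual injury, 14 DAA. Application: acetone, 187 l/ha, 15–1000 g ai/ha, flat-fan track sprayer with nozzle 40–45 cm above soil or canopy. Post-emerge runs used 0.25% v/v surfactant on 2–3 leaf plants.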

[22] = tested on: upland rice (Oryza sp., var. Tebonnet, RICE); experiment: Pre-emerge test, crop safety; settings: for Pre-emerge Herbicidal Activity RICE: crop damage rating 0-100, 14 days after application; for phytotoxicity rating RICE (crop damage): pre-emerge, 14 days after application, scale 0-100
Outline: as §3

CCOC(=O)COc1c(Cl)cc(F)c(-n2c(=O)cc(C(F)(F)F)n(C)c2=O)c1NC(=O)C=Cc1ccccc1 [2-190]
Pre-emerge Herbicidal Activity AMARE ([1]; 63 g ai/ha): 95 | Pre-emerge Herbicidal Activity AMARE ([1]; 250 g ai/ha): 100 | Pre-emerge Herbicidal Activity CHEAL ([2]; 63 g ai/ha): 100 | Pre-emerge Herbicidal Activity CHEAL ([2]; 250 g ai/ha): 100 | Pre-emerge Herbicidal Activity IPOHE ([3]; 63 g ai/ha): 0 | Pre-emerge Herbicidal Activity IPOHE ([3]; 250 g ai/ha): 90 | Pre-emerge Herbicidal Activity ABUTH ([4]; 63 g ai/ha): 100 | Pre-emerge Herbicidal Activity ABUTH ([4]; 250 g ai/ha): 100 | Pre-emerge Herbicidal Activity SORHA ([5]; 63 g ai/ha): 0 | Pre-emerge Herbicidal Activity SORHA ([5]; 250 g ai/ha): 0 | Pre-emerge Herbicidal Activity CASOB ([6]; 63 g ai/ha): 30 | Pre-emerge Herbicidal Activity CASOB ([6]; 250 g ai/ha): 70 | Pre-emerge Herbicidal Activity ECHCG ([7]; 63 g ai/ha): 0 | Pre-emerge Herbicidal Activity ECHCG ([7]; 250 g ai/ha): 0 | Pre-emerge Herbicidal Activity SETVI ([8]; 63 g ai/ha): 0 | Pre-emerge Herbicidal Activity SETVI ([8]; 250 g ai/ha): 30 | Pre-emerge Herbicidal Activity DIGSA ([9]; 63 g ai/ha): 0 | Pre-emerge Herbicidal Activity DIGSA ([9]; 250 g ai/ha): 30 | CORN phytotoxicity rating (crop damage) ([10]; 63 g ai/ha): 5 | phytotoxicity rating CORN (crop damage) ([10]; 250 g ai/ha): 10 | RICE phytotoxicity rating (crop damage) ([11]; 63 g ai/ha): 0 | phytotoxicity rating RICE (crop damage) ([11]; 250 g ai/ha): 5 | CHEAL phytotoxicity rating ([12]; 63 g ai/ha): 90 | phytotoxicity rating CHEAL ([12]; 250 g ai/ha): 100 | AMARE phytotoxicity rating ([13]; 63 g ai/ha): 95 | phytotoxicity rating AMARE ([13]; 250 g ai/ha): 99 | IPOHE phytotoxicity rating ([14]; 63 g ai/ha): 50 | phytotoxicity rating IPOHE ([14]; 250 g ai/ha): 90 | ABUTH phytotoxicity rating ([15]; 63 g ai/ha): 90 | phytotoxicity rating ABUTH ([15]; 250 g ai/ha): 90 | SORHA phytotoxicity rating ([16]; 63 g ai/ha): 0 | phytotoxicity rating SORHA ([16]; 250 g ai/ha): 50 | CASOB phytotoxicity rating ([17]; 63 g ai/ha): 20 | phytotoxicity rating CASOB ([17]; 250 g ai/ha): 80 | ECHCG phytotoxicity rating ([18]; 63 g ai/ha): 0 | phytotoxicity rating ECHCG ([18]; 250 g ai/ha): 10 | SETVI phytotoxicity rating ([19]; 63 g ai/ha): 0 | phytotoxicity rating SETVI ([19]; 250 g ai/ha): 0 | DIGSA phytotoxicity rating ([20]; 63 g ai/ha): 0 | phytotoxicity rating DIGSA ([20]; 250 g ai/ha): 0 | Pre-emerge Herbicidal Activity CORN ([21]; 63 g ai/ha): 0 | Pre-emerge Herbicidal Activity CORN ([21]; 250 g ai/ha): 0 | Pre-emerge Herbicidal Activity RICE ([22]; 63 g ai/ha): 10 | Pre-emerge Herbicidal Activity RICE ([22]; 250 g ai/ha): 20

COc1c(Br)cc(F)c(-n2c(=O)cc(C(F)(F)F)n(C)c2=O)c1N(C(=O)C=Cc1ccccc1)C(=O)C=Cc1ccccc1 [2-176]
phytotoxicity rating AMARE ([1]; 63 g ai/ha): 50 | phytotoxicity rating AMARE ([1]; 250 g ai/ha): 90 | phytotoxicity rating CHEAL ([2]; 63 g ai/ha): 90 | phytotoxicity rating CHEAL ([2]; 250 g ai/ha): 100 | phytotoxicity rating IPOHE ([3]; 63 g ai/ha): 0 | phytotoxicity rating IPOHE ([3]; 250 g ai/ha): 40 | phytotoxicity rating ABUTH ([4]; 63 g ai/ha): 0 | phytotoxicity rating ABUTH ([4]; 250 g ai/ha): 70 | phytotoxicity rating SORHA ([5]; 63 g ai/ha): 0 | phytotoxicity rating SORHA ([5]; 250 g ai/ha): 0 | phytotoxicity rating CASOB ([6]; 63 g ai/ha): 0 | phytotoxicity rating CASOB ([6]; 250 g ai/ha): 0 | phytotoxicity rating ECHCG ([7]; 63 g ai/ha): 0 | phytotoxicity rating ECHCG ([7]; 250 g ai/ha): 0 | phytotoxicity rating SETVI ([8]; 63 g ai/ha): 0 | phytotoxicity rating SETVI ([8]; 250 g ai/ha): 20 | phytotoxicity rating DIGSA ([9]; 63 g ai/ha): 0 | phytotoxicity rating DIGSA ([9]; 250 g ai/ha): 20 | CORN phytotoxicity rating (crop damage) ([10]; 63 g ai/ha): 0 | CORN phytotoxicity rating (crop damage) ([10]; 250 g ai/ha): 5 | RICE phytotoxicity rating (crop damage) ([11]; 63 g ai/ha): 10 | RICE phytotoxicity rating (crop damage) ([11]; 250 g ai/ha): 30 | CHEAL phytotoxicity rating ([12]; 63 g ai/ha): 80 | CHEAL phytotoxicity rating ([12]; 250 g ai/ha): 90 | AMARE phytotoxicity rating ([13]; 63 g ai/ha): 100 | AMARE phytotoxicity rating ([13]; 250 g ai/ha): 100 | IPOHE phytotoxicity rating ([14]; 63 g ai/ha): 70 | IPOHE phytotoxicity rating ([14]; 250 g ai/ha): 95 | ABUTH phytotoxicity rating ([15]; 63 g ai/ha): 50 | ABUTH phytotoxicity rating ([15]; 250 g ai/ha): 90 | SORHA phytotoxicity rating ([16]; 63 g ai/ha): 0 | SORHA phytotoxicity rating ([16]; 250 g ai/ha): 0 | CASOB phytotoxicity rating ([17]; 63 g ai/ha): 10 | CASOB phytotoxicity rating ([17]; 250 g ai/ha): 30 | ECHCG phytotoxicity rating ([18]; 63 g ai/ha): 0 | ECHCG phytotoxicity rating ([18]; 250 g ai/ha): 0 | SETVI phytotoxicity rating ([19]; 63 g ai/ha): 0 | SETVI phytotoxicity rating ([19]; 250 g ai/ha): 0 | DIGSA phytotoxicity rating ([20]; 63 g ai/ha): 0 | DIGSA phytotoxicity rating ([20]; 250 g ai/ha): 0 | phytotoxicity rating CORN (crop damage) ([21]; 63 g ai/ha): 0 | phytotoxicity rating CORN (crop damage) ([21]; 250 g ai/ha): 0 | phytotoxicity rating RICE (crop damage) ([22]; 63 g ai/ha): 0 | phytotoxicity rating RICE (crop damage) ([22]; 250 g ai/ha): 0
